Test results reported in paper PMC5052595, “Structure-based discovery of potentially active semiochemicals for Cydia pomonella (L.)” (Scientific Reports, 2016).
Each block holds one compound with its values, some of them ahead of it.

What was measured:
CpomPBP1 = experiment: Competitive binding assay with 1-NPN fluorescence probe; design: species or system Cydia pomonella; conditions: for Kd: wild type CpomPBP1, 2 μM protein, 2 μM 1-NPN, 50 mM Tris-HCl pH 7.0, read-out: dissociation constant (Kd)
Method: (§1) According to the results of virtual screening and commercial availability of the matched semiochemicals, 8 compounds (including Codlemone) were finally subjected to competitive binding assay by taking 1-NPN as the fluorescence probe. All ligands including 1-NPN were dissolved in ethanol of GC grade. […] The fluorescence was measured on a Hitachi F-4600 spectrofluorimeter with a slit width of 5 nm for excitation and emission. The excitation wavelength was decided to be 337 nm and the fluorescence emissions were recorded from 350 to 500 nm. The in vitro binding assays between CpomPBP2 and small molecule compounds were performed in the same way.
(§2) It was assumed that CpomPBP1 (MT and WT) was 100% active and the binding between protein and ligand was 1:1 at saturation. To analyze the obtained data and to calculate the Kd of each ligand, Graphpad Prism software (Graphpad software, Inc.) was employed.

CpomPBP2 = CpomPBP2 (Cydia pomonella, UniProt I3ZNT9); experiment: as above
Chain of CpomPBP2 (I3ZNT9 26-169 limits assumed): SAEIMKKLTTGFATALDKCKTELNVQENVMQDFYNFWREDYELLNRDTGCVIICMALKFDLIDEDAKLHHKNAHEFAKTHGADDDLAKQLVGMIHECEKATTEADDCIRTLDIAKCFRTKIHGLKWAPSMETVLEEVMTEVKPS
Method: as §1, §2

CpomPBP1F12A = experiment: Competitive binding assay, mutant protein; design: species or system Cydia pomonella; conditions: F12A; RTln(Kd-MT/Kd-WT)
Method: as §1
(§3) To test binding ability changes of CpomPBP1 caused by the mutation of each target site, the in vitro binding assays between CpomPBP1 proteins (MT and WT CpomPBP1) and ETrME was implemented according to the part of competitive binding assay.
as §2
(§4) The experimental binding free energy of the complexes formed by ETrME and each mutant was calculated by the equation (1): […]
(§5) In this equation, Kd-MT and Kd-WT are the dissociation constants for mutant and wild CpomPBP1 respectively. R stands for the ideal gas constant and T means the temperature in Kelvin.

CpomPBP1F36A = experiment: Competitive binding assay, mutant protein; design: species or system Cydia pomonella; conditions: F36A; RTln(Kd-MT/Kd-WT)
Method: as §1, §3, §2, §4, §5

CpomPBP1I52A = experiment: Competitive binding assay, mutant protein; design: species or system Cydia pomonella; conditions: I52A; RTln(Kd-MT/Kd-WT)
Method: as §1, §3, §2, §4, §5

CpomPBP1I94A = experiment: Competitive binding assay, mutant protein; design: species or system Cydia pomonella; conditions: I94A; RTln(Kd-MT/Kd-WT)
Method: as §1, §3, §2, §4, §5

CpomPBP1W37A = experiment: Competitive binding assay, mutant protein; design: species or system Cydia pomonella; conditions: W37A; RTln(Kd-MT/Kd-WT)
Method: as §1, §3, §2, §4, §5

Compound: CCCCC/C=C\C/C=C\C/C=C\CCCCCCC(=O)O [Z-8,11,14-Eicosatrienoic acid]
Kd (CpomPBP1): 12.8 µM

Compound: CCC=CCC=CCC=CCCCCCCCCCC(=O)OC [ETrME]
Kd (CpomPBP1): 3.14 µM | Kd (CpomPBP2; CpomPBP2, 1-NPN competitive binding, read-out: dissociation constant (Kd)): 8.62 µM | ΔΔGbind-exp (CpomPBP1F12A): 2.80 kcal/mol | ΔΔGbind-exp (CpomPBP1F36A): 3.25 kcal/mol | ΔΔGbind-exp (CpomPBP1I52A): 1.86 kcal/mol | ΔΔGbind-exp (CpomPBP1I94A): 1.4 kcal/mol | ΔΔGbind-exp (CpomPBP1W37A): 3.54 kcal/mol

Other lines, results leading:

binding to CpomPBP1 (in words) (CpomPBP1; titration 0 to 64 μM ligand, 1-NPN probe): no binding
Compound: CCCCC/C=C\C/C=C\CCCCCCCC(=O)O [Linoleic acid]

Kd (CpomPBP1): 3.78 µM | binding to CpomPBP2 (in words) (CpomPBP2; titration course, 1-NPN probe): no binding
Compound: C/C=C/C=C/CCCCCCCO [Codlemone, reference compound]

Kd (CpomPBP1): 8.23 µM
Compound: CCC=CCC=CCC=CCC=CC=CC(O)CCCC(=O)O (racemic) [(±)5-HEPE]
